Results from patent US20070248705A1, “Agents for Activating the Transcription Factor Nrf2 and Foods Having Such Function” (KIRIN BEER KABUSHIKI KAISHA, priority 2004, published 2007).

Columns and labels:
heme oxygenase 1 (HO1) = experiment: Expression of genes controlled by Nrf2 in RAW264.7: HO1; format: cell-based, mouse; settings: RAW264.7, 25 μM, 20 hours
Method: (§1) A mouse macrophage cell line RAW264.7 was seeded on a φ60 mm dish (9×10^5 cells), 2 ml of a D-MEM medium (Invitrogen) supplemented with 10% fetal bovine serum (HyClone) and penicillin-streptomycin (100 units/ml and 100 μg/ml, respectively; Sigma) was added, and the dish was incubated at 37° C. in an atmosphere of 5% CO2 for 2 days. The medium was replaced with a fresh medium containing individual samples and incubation was continued for another 20 hours. Then, the total RNA was prepared using TRIzol (Invitrogen) and purified using a RNeasy Mini kit (Qiagen) and an RNase-free DNase set (Qiagen). Further, cDNA was synthesized from 5 μg of the purified total RNA using a Thermo Script RT-PCR system (Invitrogen), and the amount of mRNA expression of various genes was determined using a FastStart DNA Master SYBR Green I kit (Roche) and a Light Cycler (Roche).
(§2) The amount of expression of the various genes was corrected by the amount of expression of the housekeeping gene PO and calculated as a relative expression level (n=2, mean±standard deviation). […]

[1] = test system: glutamate cysteine ligase modifier subunit (GCLM); experiment: Expression of genes controlled by Nrf2 in RAW264.7: GCLM; format: cell-based, mouse; settings: RAW264.7, 25 μM, 20 hours
Method: as §1, §2

[2] = test system: glucose-6-phosphate dehydrogenase 2 (G6PD2); experiment: Expression of genes controlled by Nrf2 in RAW264.7: G6PD2; format: cell-based, mouse; settings: RAW264.7, 25 μM, 20 hours
Method: as §1, §2

[3] = test system: glucose-6-phosphate dehydrogenase, X-linked (G6PDX); experiment: Expression of genes controlled by Nrf2 in RAW264.7: G6PDX; format: cell-based, mouse; settings: RAW264.7, 25 μM, 20 hours
Method: as §1, §2

[4] = test system: mouse macrophage cell line RAW264.7; experiment: Amount of intracellular glutathione; format: cell-based; settings: RAW264.7, 25 μM, 20 hours
Method: A mouse macrophage cell line RAW264.7 was seeded on a φ60 mm dish (7×10^5 cells), 2 ml of a D-MEM medium (Invitrogen) supplemented with 10% fetal bovine serum (HyClone) and penicillin-streptomycin (100 units/ml and 100 μg/ml, respectively; Sigma) was added, and the dish was incubated at 37° C. in an atmosphere of 5% CO2 for 2 days. The medium was replaced with a fresh medium containing individual samples and incubation was continued for another 20 hours. The samples added were isohumulone (IH(F)) and isohumulone (IcH(G)) at a concentration of 25 μM. The cells were recovered, broken by ultrasonication, and centrifuged to obtain the supernatant, and the amount of the total intracellular glutathione was measured using a glutathione assay kit (Cayman Chemical) (n=2, mean±standard deviation). As a positive control, 15dPGJ2 (Cayman Chemical) was used.

[5] = test system: mouse macrophage cell line RAW264.7; experiment: Suppressive action on cell death by hydrogen peroxide; format: cell-based; settings: RAW264.7, 25 μM, 2 hours
Method: A mouse macrophage cell line RAW264.7 (6×10^4 cells/well) was incubated on a 96-well plate in 100 μl of a D-MEM medium (Invitrogen) containing individual samples, 10% fetal bovine serum (HyClone), and penicillin-streptomycin (100 units/ml and 100 μg/ml, respectively; Sigma) at 37° C. in an atmosphere of 5% CO2 overnight. The samples added were isohumulone (IH(F)) and isohumulone (IcH(G)) at a concentration of 25 μM. Hydrogen peroxide (Wako Pure Chemical Industries) was added hereto at a final concentration of 0.8 or 1.0 mM and incubation was continued for another 2 hours. Then, adsorption at 440 nm was measured using a microplate reader (Power Wave 200, Bio-Tek Instruments) with a cell growth reagent WST-1 (Roche Diagnostics). The cell survival rate for each sample was calculated by setting the value without hydrogen peroxide as 100% (n=2, mean±standard variation). As a positive control, 15dPGJ2 (Cayman Chemical) was used.

Compound: CC(C)=CCC(=O)C1(O)C(O)=C(C(=O)CC(C)C)C(=O)C1CC=C(C)C (stereo not shown) [IH (F), isohumulone]
- expression of HO1 (heme oxygenase 1 (HO1)): augmented the expression
- expression of GCLM [1]: augmented the expression
- expression of G6PD2 [2]: augmented the expression
- expression of G6PDX [3]: augmented the expression
- amount of the total intracellular glutathione [4]: Increased the amount of the total intracellular glutathione
- cell death by hydrogen peroxide (cell survival rate) ([5]; hydrogen peroxide 0.8 mM): suppressed cell death
- cell death by hydrogen peroxide (cell survival rate) ([5]; hydrogen peroxide 1.0 mM): suppressed cell death
